Laboratory results from ChEMBL document CHEMBL1145408, “Substituted E-3-(2-chloro-3-indolylmethylene)1,3-dihydroindol-2-ones with antitumor activity. Effect on the cell cycle and apoptosis” (2007).
Structures can show the parent of a compound that is named as a salt. Calls of active or inactive are those of the source. The calls are words filed in the database; no cut-off is given here.

Columns and labels:
Caspase-7 (Homo sapiens) = target: T1, Caspase-7 (Homo sapiens) (UniProt P55210); test: Activation of caspase 7 activity in IGROV1 cells assessed as DEVD peptide hydrolysis at 5 uM after 24 hrs; assay type: cell-based; details: IGROV-1
T1 sequence (whole entry): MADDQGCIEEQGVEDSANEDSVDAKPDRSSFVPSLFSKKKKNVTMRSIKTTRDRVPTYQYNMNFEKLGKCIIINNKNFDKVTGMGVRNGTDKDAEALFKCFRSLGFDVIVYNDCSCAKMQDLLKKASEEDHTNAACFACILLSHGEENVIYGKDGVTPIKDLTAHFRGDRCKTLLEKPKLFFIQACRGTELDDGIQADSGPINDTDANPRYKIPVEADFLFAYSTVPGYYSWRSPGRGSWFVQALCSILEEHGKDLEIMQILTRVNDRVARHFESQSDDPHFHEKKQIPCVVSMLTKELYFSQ

Caspase-3 (Homo sapiens) = target: T2, Caspase-3 (Homo sapiens) (UniProt P42574); test: Activation of caspase 3 activity in IGROV1 cells assessed as DEVD peptide hydrolysis at 5 uM after 24 hrs; assay type: cell-based; details: IGROV-1
T2 sequence (whole entry): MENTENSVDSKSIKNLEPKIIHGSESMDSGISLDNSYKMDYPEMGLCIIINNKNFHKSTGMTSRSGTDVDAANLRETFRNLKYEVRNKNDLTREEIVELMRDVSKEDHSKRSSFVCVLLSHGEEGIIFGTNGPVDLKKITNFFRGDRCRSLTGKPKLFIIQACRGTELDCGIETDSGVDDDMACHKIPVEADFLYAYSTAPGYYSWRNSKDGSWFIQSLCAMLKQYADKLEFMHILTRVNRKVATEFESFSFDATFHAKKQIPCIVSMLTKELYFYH

[1] = Antitumor activity against breast tumor cells; assay type: functional; details: Homo sapiens; for TGI: read-out: pTGI (converted)
[2] = Antitumor activity against ovarian tumor cells; assay type: functional; details: Homo sapiens; for TGI: read-out: pTGI (converted)
[3] = Antitumor activity against colon tumor cells; assay type: functional; details: Homo sapiens; for TGI: read-out: pTGI (converted)
[4] = Antitumor activity against leukemia cells; assay type: functional; details: Homo sapiens, Leukemia cell; for TGI: read-out: pTGI (converted)
[5] = Antitumor activity against renal tumor cells; assay type: functional; details: Homo sapiens; for TGI: read-out: pTGI (converted)
[6] = Antitumor activity against CNS tumor cells; assay type: functional; details: Homo sapiens; for TGI: read-out: pTGI (converted)
[7] = Antitumor activity against prostate tumor cells; assay type: functional; details: Homo sapiens; for CC50: read-out: Log LC50 (the source's name) (converted); for TGI: read-out: pTGI (converted)
NSCLC = test: Antitumor activity against NSCLC cells; assay type: functional; details: Homo sapiens; for TGI: read-out: pTGI (converted)
[8] = Antitumor activity against melanoma cells; assay type: functional; details: Homo sapiens, Melanoma cell; for CC50: read-out: Log LC50 (the source's name) (converted); for TGI: read-out: pTGI (converted)

Q: With `COc1cc2c(/C=C3/C(=O)Nc4ccccc43)c(Cl)n(C)c2cc1C` as the compound, how does the Activity (Caspase-7 (Homo sapiens)) read?
A: Active

Q: And the Activity (Caspase-3 (Homo sapiens))?
A: Active

Q: What does the source list for `COc1cc2c(/C=C3/C(=O)Nc4cccc(Cl)c43)c(Cl)n(Cc3ccc(Cl)cc3)c2cc1C`?
A: Activity (Caspase-7 (Homo sapiens)): Active; Activity (Caspase-3 (Homo sapiens)): Active

Q: For `COc1cc2c(/C=C3/C(=O)Nc4ccc(O)cc43)c(Cl)n(C)c2cc1C`, which Activity (Caspase-7 (Homo sapiens)) is on record?
A: Active

Q: And the Activity (Caspase-3 (Homo sapiens))?
A: Active

Q: With `COc1cc2c(/C=C3/C(=O)Nc4ccc(O)cc43)c(Cl)n(Cc3ccc(Cl)cc3)c2cc1C` as the compound, how does the Activity (Caspase-7 (Homo sapiens)) read?
A: Active

Q: And the Activity (Caspase-3 (Homo sapiens))?
A: Active

Q: Which results are given for `COc1cc2c(/C=C3/C(=O)Nc4cc(C)c(O)cc43)c(Cl)n(C)c2cc1C`?
A: Activity (Caspase-7 (Homo sapiens)): Active; Activity (Caspase-3 (Homo sapiens)): Active

Q: For `COc1cc2c(/C=C3/C(=O)Nc4c3ccc3ccccc43)c(Cl)[nH]c2cc1C`, which GI50 [1] is on record?
A: 39.8 nM

Q: And the LC50 [1]?
A: 50100 nM

Q: And the TGI [1]?
A: 2040 nM

Q: And the GI50 [2]?
A: 12 nM

Q: And the LC50 [2]?
A: 47900 nM

Q: What about the TGI [2] of the same compound?
A: 708 nM

Q: And the Activity (Caspase-7 (Homo sapiens))?
A: Active

Q: What about the GI50 [3] of the same compound?
A: 17 nM

Q: And the LC50 [3]?
A: 50100 nM

Q: And the TGI [3]?
A: 3720 nM

Q: What about the GI50 [4] of the same compound?
A: 10.2 nM

Q: What about the TGI [4] of the same compound?
A: 537 nM

Q: And the GI50 [5]?
A: 89.1 nM

Q: And the LC50 [5]?
A: 50100 nM

Q: What about the TGI [5] of the same compound?
A: 30900 nM

Q: And the GI50 [6]?
A: 13.5 nM

Q: What about the LC50 [6] of the same compound?
A: 50100 nM

Q: And the TGI [6]?
A: 794 nM

Q: What about the Activity (Caspase-3 (Homo sapiens)) of the same compound?
A: Active

Q: What about the GI50 [7] of the same compound?
A: 17 nM

Q: What about the CC50 [7] of the same compound?
A: 50100 nM

Q: What about the TGI [7] of the same compound?
A: 50100 nM

Q: What about the GI50 (NSCLC) of the same compound?
A: 102 nM

Q: And the LC50 (NSCLC)?
A: 49000 nM

Q: And the TGI (NSCLC)?
A: 4270 nM

Q: And the GI50 [8]?
A: 10 nM

Q: What about the CC50 [8] of the same compound?
A: 40700 nM

Q: What about the TGI [8] of the same compound?
A: 3550 nM

Q: What does the source list for `COc1cc2c(/C=C3/C(=O)Nc4ccc(F)cc43)c(Cl)[nH]c2cc1C`?
A: Activity (Caspase-7 (Homo sapiens)): Active; Activity (Caspase-3 (Homo sapiens)): Active

Q: What does the source list for `COc1cc2c(/C=C3/C(=O)Nc4cc(C)c(O)cc43)c(Cl)n(Cc3ccc(Cl)cc3)c2cc1C`?
A: Activity (Caspase-7 (Homo sapiens)): Active; Activity (Caspase-3 (Homo sapiens)): Active

Q: With `COc1cc2c(/C=C3/C(=O)Nc4cccc(Cl)c43)c(Cl)n(C)c2cc1C` as the compound, how does the Activity (Caspase-7 (Homo sapiens)) read?
A: Active

Q: What about the Activity (Caspase-3 (Homo sapiens)) of the same compound?
A: Active

Q: With `CC[C@]1(O)C[C@H]2CN(CCc3c([nH]c4ccccc34)[C@@](C(=O)OC)(c3cc4c(cc3OC)N(C=O)[C@H]3[C@@](O)(C(=O)OC)[C@H](OC(C)=O)[C@]5(CC)C=CCN6CC[C@]43[C@@H]65)C2)C1` [VINCRISTINE SULFATE] as the compound, how does the GI50 [1] read?
A: 316 nM

Q: And the TGI [1]?
A: 7940 nM

Q: What about the GI50 [2] of the same compound?
A: 316 nM

Q: And the TGI [2]?
A: 20000 nM

Q: What about the GI50 [3] of the same compound?
A: 100 nM

Q: And the TGI [3]?
A: 3980 nM

Q: What about the GI50 [4] of the same compound?
A: 100 nM

Q: And the TGI [4]?
A: 15800 nM

Q: And the GI50 [5]?
A: 316 nM

Q: And the TGI [5]?
A: 20000 nM

Q: What about the GI50 [6] of the same compound?
A: 126 nM

Q: And the TGI [6]?
A: 6310 nM

Q: What about the GI50 [7] of the same compound?
A: 126 nM

Q: What about the CC50 [7] of the same compound?
A: 316000 nM

Q: What about the TGI [7] of the same compound?
A: 6310 nM

Q: And the GI50 (NSCLC)?
A: 251 nM

Q: What about the TGI (NSCLC) of the same compound?
A: 15800 nM

Q: What about the GI50 [8] of the same compound?
A: 158 nM

Q: And the CC50 [8]?
A: 251000 nM

Q: And the TGI [8]?
A: 7940 nM

Q: Which results are given for `COc1cc2c(/C=C3/C(=O)Nc4c3ccc3ccccc43)c(Cl)n(C)c2cc1C`?
A: GI50 [1]: 46.8 nM; LC50 [1]: 13800 nM; TGI [1]: 3020 nM; GI50 [2]: 35.5 nM; LC50 [2]: 22900 nM; TGI [2]: 562 nM; Activity (Caspase-7 (Homo sapiens)): Active; GI50 [3]: 77.6 nM; LC50 [3]: 5130 nM; TGI [3]: 129 nM; GI50 [4]: 17.4 nM; TGI [4]: 501 nM; GI50 [5]: 72.4 nM; LC50 [5]: 22400 nM; TGI [5]: 2630 nM; GI50 [6]: 115 nM; LC50 [6]: 30900 nM; TGI [6]: 1620 nM; Activity (Caspase-3 (Homo sapiens)): Active; GI50 [7]: 562 nM; CC50 [7]: 25700 nM; TGI [7]: 2450 nM; GI50 (NSCLC): 30.9 nM; LC50 (NSCLC): 50100 nM; TGI (NSCLC): 4790 nM; GI50 [8]: 53.7 nM; CC50 [8]: 36300 nM; TGI [8]: 6610 nM

Q: For `COc1cc2c(/C=C3/C(=O)Nc4ccc(Cl)cc43)c(Cl)n(C)c2cc1C`, which Activity (Caspase-7 (Homo sapiens)) is on record?
A: Active

Q: What about the Activity (Caspase-3 (Homo sapiens)) of the same compound?
A: Active

Q: For `COc1cc2c(/C=C3/C(=O)Nc4ccc(F)cc43)c(Cl)n(C)c2cc1C`, which Activity (Caspase-7 (Homo sapiens)) is on record?
A: Active

Q: What about the Activity (Caspase-3 (Homo sapiens)) of the same compound?
A: Active

Q: With `COc1cc2c(/C=C3/C(=O)Nc4ccc(Cl)cc43)c(Cl)n(Cc3ccc(Cl)cc3)c2cc1C` as the compound, how does the Activity (Caspase-7 (Homo sapiens)) read?
A: Active

Q: What about the Activity (Caspase-3 (Homo sapiens)) of the same compound?
A: Active

Q: For `COc1cc2c(/C=C3/C(=O)Nc4ccc(F)cc43)c(Cl)n(Cc3ccccc3)c2cc1C`, which Activity (Caspase-7 (Homo sapiens)) is on record?
A: Active

Q: What about the Activity (Caspase-3 (Homo sapiens)) of the same compound?
A: Active
